The source of these data is patent publication US9034336B2, “Immunomodulators and immunomodulator conjugates” (Regents of the University of Minnesota, priority 2011, dated 2015).

The EC50 is the concentration at which the effect is half-maximal.

For experiment [1], the system named is human monocyte-derived dendritic cells (MoDC). As to the kind of experiment: Human MoDC immunostaining and flow cytometric analysis (maturation, DC phenotype). It counts as cell-based. How it is done:
(§1) 1. Dendritic cells were generated from peripheral blood monocytes as described (Brossart P, et al. Blood. 1998; 92: 4238-4247). In brief, CD14 positive monocytes were from a healthy human peripheral blood mononuclear cells (PBMC) obtained via isolation with Lymphocyte Separation Medium (Mediatech, Inc, Manassas, Va.) and after purification with CD14 microbeads from Miltenyi Biotec Inc (Aubun, Calif.). The CD14 positive monocytes (>95% CD14) were cultured into immature monocyte-derived dendritic cells (MoDC) by further 6 day culture with GM-CSF (100 ng/ml) and IL-4 (100 ng/ml)(R&D, MN). 2. 0.1 million of MoDC were plated into 96-well plate and stimulated for 48 hours with 5 different concentration of following TLRs: 412, 420, 421, 414 and 415 at concentration of 0, 0.325, 1.3, 5.2 and 20.8 nmol/ml in triplicate. In other experiments (FIGS. 34 and 35), fresh PBMC (not DC) were used as the responder cells to the indicated compounds and cytokines levels were measured by bead array according to the manufacture's protocol (BD biosciences).
48 hours after stimulation, the cells were stained with anti-HLA-DR, CD11c, CD-86, CD80, CD83, CD8a, CD123 and relevant isotype control (eBioscience, San Diego, Calif.). The cells were loaded on FACS-canto II and analyzed with FACSDiva and Flowjo
(In general: Flow cytometry measures light scatter and fluorescence of single cells or particles in a stream.)

Experiment [2] shares this test system. As to the kind of experiment: Human MoDC inflammatory cytokines by cytometric bead assay. The experiment is classed as cell-based. The protocol:
as §1
The supernatant were harvested 48 hours after stimulation with TLRs. Inflammatory cytokines level was identified with CBA, following the producer's instruction (BD, San Jose, Calif.)

The subject of the next experiment is BMDC or splenocytes. Briefly: Inflammatory cytokine detection in BMDC and splenocytes (CBA). The experiment is classed as cell-based, C57BL/6j mice. The settings on record: Example 6, FIG. 23; compared to resiquimod and imiquimod. How it is done:
(§2) Bone marrow cells were harvested from femurs and tibias of C57BL/6j. After red blood cells were removed with ammonium-chloride-potassium buffer, the bone marrow cells were cultured with complete RPMI-1640 medium and 2 ng/ml of granulocyte macrophage colony-stimulating factor (GM-CFS) at 5% CO2 and 37° C. for 6 days. Medium was changed twice during 6 days culture. Single cell suspension of splenocytes was prepared in the same way as one in IL-6 detection assay. BMDC or splenocytes were stimulated in triplicate with Imiquimod-derived new TLR ligand compounds, 412, 420, 421, 422, IMQ (414) and Resquimod (415) at various concentration of 20.8 nmol/ml, 5.2 nmol/ml, 1.3 nmol/ml, 0.325 nmol/ml and 0 nmol/ml. 48 hours after stimulation, the supernatants were harvested and frozen at −80° C. until detection. A cytometric bead array (CBA, BD Bioscience) was performed on inflammatory cytokines following the manufacture's instruction. 500 events were collected. Analysis of all samples was performed on FACScanto-II machine with software and further analyzed with Flowjo. Standard curves and negative control (PBS) were included for each cytokine to calculate the cytokine concentration in the samples.

For another experiment, the target named is T1, human TLR7 (Homo sapiens, UniProt Q9NYK1).
T1 construct: host or cells: HEK (HEK293) cells with NF-kB-responsive SEAP reporter
T1 sequence (Q9NYK1 27-1049): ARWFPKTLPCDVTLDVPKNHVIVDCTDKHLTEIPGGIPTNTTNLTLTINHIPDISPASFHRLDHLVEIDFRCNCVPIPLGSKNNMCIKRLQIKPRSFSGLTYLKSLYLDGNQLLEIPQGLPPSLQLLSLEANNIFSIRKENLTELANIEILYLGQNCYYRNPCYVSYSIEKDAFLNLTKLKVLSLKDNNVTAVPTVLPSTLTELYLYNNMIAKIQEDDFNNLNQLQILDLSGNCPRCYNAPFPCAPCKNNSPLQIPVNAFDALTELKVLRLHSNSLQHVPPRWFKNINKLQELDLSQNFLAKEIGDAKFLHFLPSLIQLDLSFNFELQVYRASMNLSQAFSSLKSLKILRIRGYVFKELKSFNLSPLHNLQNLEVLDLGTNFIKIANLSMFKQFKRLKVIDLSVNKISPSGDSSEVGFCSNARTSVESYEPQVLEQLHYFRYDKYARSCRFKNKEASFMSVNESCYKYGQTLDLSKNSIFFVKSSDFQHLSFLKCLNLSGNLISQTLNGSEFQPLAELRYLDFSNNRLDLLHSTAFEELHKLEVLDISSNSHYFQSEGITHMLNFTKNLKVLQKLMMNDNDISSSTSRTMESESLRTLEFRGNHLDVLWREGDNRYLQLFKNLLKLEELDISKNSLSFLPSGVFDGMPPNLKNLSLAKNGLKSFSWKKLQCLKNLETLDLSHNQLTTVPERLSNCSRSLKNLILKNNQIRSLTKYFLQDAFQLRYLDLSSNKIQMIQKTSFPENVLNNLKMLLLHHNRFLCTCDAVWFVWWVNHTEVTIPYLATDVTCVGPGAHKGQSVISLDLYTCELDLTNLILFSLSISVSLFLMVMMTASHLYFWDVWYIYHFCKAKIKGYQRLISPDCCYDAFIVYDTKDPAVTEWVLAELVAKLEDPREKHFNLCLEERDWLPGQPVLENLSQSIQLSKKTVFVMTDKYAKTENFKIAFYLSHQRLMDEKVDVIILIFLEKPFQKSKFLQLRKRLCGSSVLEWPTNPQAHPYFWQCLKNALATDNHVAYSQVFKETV
Briefly: TLR7/8-NF-κB reporter assay (HEK-TLR7, SEAP). The experiment is classed as cell-based. The following applies: HEK-TLR7 cells, 24 hrs, read-out: EC50 of TLR7 (mean ± SD). How it is done:
Human embryonic kidney (HEK) cells that were stably transfected with human TLR7 or TLR8 and an NF-κB—responsive secreted embryonic alkaline phosphatase (SEAP) gene (HEK-TLR7/8) were purchased from InvivoGen (San Diego, Calif.). The procedure used to measure TLR7 or TLR8 agonist activity was conducted as described by Hood et al. (Hood J. D, et al., Human Vaccines, 2010, 6, 4, 322-335). Briefly, HEK-TLR7/8 cells were stimulated with 3.3 or 30 μM of compound in a 96-well plate in DMEM containing 10% FBS and 0.01% Normocin (InvivoGen) for 24 hrs. Twenty microliters of the supernatant from each well was incubated with Quanti-blue substrate solution (InvivoGen) at 37° C. for 1 hour and absorbance was read at 650 nm using a Synergy plate reader (Biotek, Winooski, Vt.).
(In general: Reporter assays use an easily measured gene product as a stand-in for the process of interest.)

Another experiment relates to mouse splenocytes. Briefly: Inflammatory cytokine detection in splenocytes (CBA). The experiment is classed as cell-based, C57BL/6j mice. How it is done:
as §2

“Also recorded” adds a separate entry of the source.

As for `CCCCc1nc2c(N)nc3cc(C(=O)OC)ccc3c2n1CC(C)(C)O` [Compound 420, 4-Amino-2-butyl-1-(2-hydroxy-2-methylpropyl)-7-methoxycarbonyl-1H-imidazo[4,5-c]quinoline], the “differentiation of myeloid DC into CD123+ plasmacytoid DC” value in experiment [1] (human MoDC (FIG. 4)) is reported as “did not”. In addition, in experiment [1] (human MoDC, 48 hours after stimulation), the “MoDC maturation (raising CD86 co-stimulator level and CD83)” value was “same efficiency as Resiquimod and significantly stronger than imiquimod”. For the same compound, the “IL-1β induction / secretion” value in experiment [2] (human MoDC (FIG. 11)) is on record as “induction of IL-1β; also recorded: the only drug tested that caused appreciable IL-1b secretion”. Besides, in experiment [2] (human MoDC, supernatant 48 hours after stimulation), the “production of inflammatory cytokines” value was “higher production of “inflammatory cytokines”, compared to imiquimod (but less stronger than Resquimod)”. In addition, the “elaboration of proinflammatory TNFa” value with BMDC or splenocytes is on record as “significantly greater elaboration of proinflammatory TNFa compared to the other drugs”. Besides, on human TLR7, the EC50 was 1520 ± 70 nM. Further, in the experiment on mouse splenocytes, the “IL-10 (anti-inflammatory) secretion” value is reported as “less IL-10 (anti-inflammatory) secretion compared to resiquimod”.
